# Results from patent US8298756B2, “Isolation, gene expression, and chemotherapeutic resistance of motile cancer cells” (Albert Einstein College of Medicine of Yeshiva University, priority 2004, dated 2012).
# System: invasive cells and general population of carcinoma cells from MTLn3-derived tumors
# Assay: Cell culture and apoptosis assay (Annexin V-Cy5 / PI) after drug challenge, invasive cells vs general population
# Assay type: cell-based, rat
# Settings: as a percentage of all carcinoma cells; invasive vs general population of tumor cells; 24 hr recovery after drug; FIG. 3
# Protocol: The cells collected by the needle collection procedure were subjected to drug challenge using doxorobucin (17 μM), cisplatin (50 μM) or etoposide (50 μM). The apoptotic status and viability of these cells was assessed by staining with propedium iodide (PI) and Annexin V-Cy5. […] The graph represents viability status and apoptotic index of the cells after being challenged by the anticancer drugs. Cell culture and apoptosis assay. The cells extruded from the needles and tumor cells FACS sorted were cultured in DMEM 20% FCS along with streptomycin and penicillin, for 16 hrs. Subsequently, the cells were challenged with either doxorobucin (17 μM) or cisplatin (50 μM) or etoposide (50 μM) for 1 hr, washed and allowed to recover for 24 hrs. The cells were then subjected to an apoptosis assay kit containing Annexin V Cy5 for staining the apoptotic cells and Propedium Iodide (PI) for staining the dead cells (BD Biosciences San Jose, Calif.). After staining the cells using the manufacturer's protocol, the cells were observed under a fluorescent microscope in the green, red and high red channel for GFP, PI and Cy5 respectively. The total number of GFP cells counted was compared to the number of PI positive and Annexin V-Cy5 positive cells. […] We challenged the invasive cells with three most commonly used anticancer drugs, doxorobucin, cisplatin and etoposide. […] We performed these studies on the invasive and general populations of cells from MTLn3-derived tumors. After treatment with the drugs the cells were allowed to recover for 24 hr. Subsequently, the apoptotic index and cell viability was measured as described in the Methods section.
row,Compound,drug tolerance (apoptotic index and cell viability) of invasive cells
1,N.N.[Cl][Pt][Cl] [cisplatin],invasive cells are able to tolerate all three drugs better than the general population of tumor cells
2,COc1cccc2c1C(=O)c1c(O)c3c(c(O)c1C2=O)C[C@@](O)(C(=O)CO)C[C@@H]3O[C@H]1C[C@H](N)[C@H](O)[C@H](C)O1 [doxorubicin],invasive cells are able to tolerate all three drugs better than the general population of tumor cells
3,COc1cc([C@@H]2c3cc4c(cc3[C@@H](O[C@@H]3O[C@@H]5CO[C@@H](C)O[C@H]5[C@H](O)[C@H]3O)[C@H]3COC(=O)[C@H]23)OCO4)cc(OC)c1O [etoposide],invasive cells are able to tolerate all three drugs better than the general population of tumor cells

# Same assay, conditions: invasive cells compared to carcinoma cells of the whole tumor; doxorobucin 17 μM, cisplatin 50 μM, etoposide 50 μM for 1 hr, 24 hrs recovery; Annexin V-Cy5
row,Compound,drug induced apoptotic index
1,N.N.[Cl][Pt][Cl] [cisplatin],lower drug induced apoptotic index
2,COc1cccc2c1C(=O)c1c(O)c3c(c(O)c1C2=O)C[C@@](O)(C(=O)CO)C[C@@H]3O[C@H]1C[C@H](N)[C@H](O)[C@H](C)O1 [doxorubicin],lower drug induced apoptotic index
3,COc1cc([C@@H]2c3cc4c(cc3[C@@H](O[C@@H]3O[C@@H]5CO[C@@H](C)O[C@H]5[C@H](O)[C@H]3O)[C@H]3COC(=O)[C@H]23)OCO4)cc(OC)c1O [etoposide],lower drug induced apoptotic index

# Same assay, conditions: invasive cells compared to carcinoma cells of the whole tumor; doxorobucin 17 μM, cisplatin 50 μM, etoposide 50 μM for 1 hr, 24 hrs recovery; PI staining
row,Compound,cell death
1,N.N.[Cl][Pt][Cl] [cisplatin],lower cell death
2,COc1cccc2c1C(=O)c1c(O)c3c(c(O)c1C2=O)C[C@@](O)(C(=O)CO)C[C@@H]3O[C@H]1C[C@H](N)[C@H](O)[C@H](C)O1 [doxorubicin],lower cell death
3,COc1cc([C@@H]2c3cc4c(cc3[C@@H](O[C@@H]3O[C@@H]5CO[C@@H](C)O[C@H]5[C@H](O)[C@H]3O)[C@H]3COC(=O)[C@H]23)OCO4)cc(OC)c1O [etoposide],lower cell death

# System: MTLn3 cells
# Assay: not given
# Settings: previous studies (Huigsloot et al., 2002); cited from earlier work
row,Compound,induction of apoptosis
1,N.N.[Cl][Pt][Cl] [cisplatin],induce apoptosis
2,COc1cccc2c1C(=O)c1c(O)c3c(c(O)c1C2=O)C[C@@](O)(C(=O)CO)C[C@@H]3O[C@H]1C[C@H](N)[C@H](O)[C@H](C)O1 [doxorubicin],induce apoptosis
3,COc1cc([C@@H]2c3cc4c(cc3[C@@H](O[C@@H]3O[C@@H]5CO[C@@H](C)O[C@H]5[C@H](O)[C@H]3O)[C@H]3COC(=O)[C@H]23)OCO4)cc(OC)c1O [etoposide],induce apoptosis
